In paper PMC5519928, “Log D versus HPLC derived hydrophobicity: The development of predictive tools to aid in the rational design of bioactive peptoids” (Biopolymers, 2017):
Converted amounts (≈) assume the structure as drawn. Non-standard residues stand in square brackets, D forms with d. Residues, ends and D or L forms follow the SMILES beside them. Nspe = C[C@H](NCC(=O)O)c1ccccc1; Nlys = NCCCCNCC(=O)O

What was measured:
[1] = tested on: L. mexicana promastigotes; assay: Cytotoxicity assay with Leishmania mexicana M379 promastigotes (alamarBlue); assay type: cell-based; conditions: 1 h pre-incubation with compound, then 24 h incubation, alamarBlue 4 h, fluorescence Ex 560/Em 600 nm, triplicate, minimum of two separate occasions, ED50 = median effective dose
Protocol: Leishmania mexicana (M379) promastigote parasites were maintained at 26 °C in Schneider's Insect medium (Sigma-Aldrich) supplemented with heat-inactivated foetal bovine sera (FBS, 15%; Biosera Ltd). Cells were counted using a Neubauer Improved Haemocytometer. Promastigotes were transformed into axenic amastigotes by a pH and temperature shift as previously described.5 A culture of recently transformed (three days) promastigotes in the late log phase was transferred into Schneider's Insect medium supplemented with 20% heat-inactivated FBS (pH 5.5) at 5 x 10^5 parasites/mL. […] After additional 5–7 days, the parasites should be in the amastigote stage and be ready for cytotoxicity studies and infections.
Cytotoxicity analyses were performed in 96-well plates (Costar, Fisher Scientific) using alamarBlue (Invitrogen) for cell viability detection as previously described.6 Promastigote and amastigote L. mexicana were pre-incubated with the compounds in triplicate (5 mM stock solutions in DMSO; Amphotericin B was used as a positive control; untreated parasites with DMSO as a negative control) in 50 µL of the corresponding media at 4 x 106 mL-1 for 1 hour. […] Then, 10 µL alamarBlue solution (Invitrogen) was added to each well for an incubation of 4 hours prior to assessing cell viability using a fluorescent plate reader (Biotek; Ex 560 nm / Em 600 nm). […]

[2] = Average hydrophobicity by analytical reverse-phase HPLC retention; assay type: physicochemical
Protocol: To examine the average hydrophobicity of the peptoids, the retention time for from reverse‐phase HPLC was determined on a C18 column using acetonitrile and water, with 0.1% TFA (see Figure 3A). To find log D values, partitioning experiments were carried out, as illustrated by Figure 2. A peptoid solution (between 10 and 100 µM) in PBS was added to an equal volume of octanol and the system allowed to equilibrate under gentle agitation for ∼150 h (as 48 h was not found to be sufficient for the system to reach equilibrium). At this point it is assumed that the peptoid has partitioned between these two phases, such as to minimise its free energy.
Preparative RP‐HPLC was performed with a semi‐preparative Perkin Elmer Series 200 lc pump fitted with a 785A UV/Vis detector using a SB‐Analytical ODH‐S optimal column (250 mm × 10 mm, 5 µm); flow rate 2 mL min^−1; λ = 250 nm, typical linear gradient elution 0–50% of solvent B over 60 min (A = 0.1% TFA in 95% H2O and 5% MeCN, B = 0.1% TFA in 5% H2O and 95% MeCN). Analytical RP‐HPLC was performed with a Perkin Elmer Series 200 LC pump fitted with a Series 200 UV/Vis detector using a SB‐Analytical ODH‐S optimal column (100 mm × 1.6 mm, 3.5 µm); flow rate 1 mL min^−1; λ = 220 nm, linear gradient elution 0–100% of solvent B over 30 min (A = 0.05% TFA, 95% H2O, 5% MeCN, B = 0.03% TFA, 5% H2O, 95% MeCN).
Preparative RP-HPLC was performed with a semi-preparative Perkin Elmer Series 200 lc pump fitted with a 785A UV/Vis detector using a SB-Analytical ODH-S optimal column (250 × 10 mm, 5 µm); flow rate 2 ml min^−1; λ = 250 nm, typical linear gradient elution 0-50% of solvent B over 60 min (A = 0.1% TFA in 95% H2O and 5% MeCN, B = 0.1% TFA in 5% H2O and 95% MeCN). Analytical RP-HPLC was performed with a Perkin Elmer Series 200 LC pump fitted with a Series 200 UV/Vis detector using a SB-Analytical ODH-S optimal column (100 × 1.6 mm, 3.5 µm); flow rate 1 ml min^−1; λ = 220 nm, linear gradient elution 0-100% of solvent B over 30 min (A = 0.05% TFA, 95% H2O, 5% MeCN, B = 0.03% TFA, 5% H2O, 95% MeCN).
Table S3. Data from analytical RP-HPLC for representative compounds of this peptoid library. Analytical HPLC gradient: 0 – 100% solvent B over 30 min at 220 nm (where solvent A = 95% H2O, 5% MeCN, 0.05 % TFA; solvent B = 95% MeCN, 5% H2O, 0.03% TFA).

S. aureus = assay type: cell-based; conditions: Iso-sensitest broth, 96-well, 2-100 µM 1:2 serial dilutions, 38 °C 16 h with shaking, absorbance; lowest concentration completely inhibiting growth; triplicate, minimum of two occasions
Protocol: (§1) Bacterial cultures were prepared by streaking the bacterial strain from a 4°C- or frozen stock culture to single colonies onto agar plates (containing the appropriate antibiotic for strains carrying antibiotic resistance plasmids) with an inoculation loop, followed by overnight incubation at 37 °C.
(§2) Primary overnight (o/n) cultures were prepared by inoculating a single colony from a streak plate into 5 mL of LB broth in a screw-capped culture tube, that was placed on a tube rotator at 37 °C (or 30 °C for sensitive strains) for overnight incubation. Before the usage of stock cultures the strains genotype were checked. Primary stocks were stored at 4°C for up to 6 weeks and always replaced from fresh colonies.
(§3) Fresh cultures used for experiments contained 0.1-0.5 mL o/n culture diluted into 8 mL of fresh medium in a standard test tube. Placed in a shaking water bath or on a tube rotator the bacteria were grown at the required temperature to the required cell density. Frozen stock cultures used for long term storage that can remain viable for 10 years were prepared by mixing 2.5 mL fresh o/n culture with 1.5 mL sterile 80% glycerol in a 5 mL sterile blood tube and stored at -20 °C.
(§4) MIC values were attained according to the previously described protocol4 and were conducted in 96-well plates (Costar, Fisher Scientific). Using the pre-prepared cultures, an innoculum density of 0.07 at 650 nm was set by comparing the absorbance with 0.5 MacFarland standard (240 μM BaCl2 in 0.18 M H2SO4). The innoculum was then diluted down ten-fold with Iso-sensitest broth (Oxoid, ThermoScientific) before use. Peptoids were initially dissolved in DMSO (5 mM) and then diluted further with Iso-sensitest broth to achieve a concentration range of 4 – 200 µM using 1 : 2 serial dilutions. 50 μl of innoculum and 50 μL of peptoid solution were added to each test well (final concentration range of 2 – 100 µM). Positive control containing only innoculum and Iso-sensitest broth; negative control containing inoculum and serial dilutions of ampicillin (from 250 microgram/mL to 2 microgram per mL); DMSO control containing innoculum and serial dilutions of DMSO; and Iso-sensitest broth were used as a sterile control. […] Quantitative data was attained from absorbance values using a microplate reader.

E. coli = assay type: cell-based; conditions: Iso-sensitest broth, 96-well, 2-100 µM 1:2 serial dilutions, 38 °C 16 h with shaking, absorbance; lowest concentration completely inhibiting growth; triplicate, minimum of two occasions
Protocol: as §1, §2, §3, §4

C[C@@H](c1ccccc1)N(CC(N)=O)C(=O)CN(C(=O)CN(CCCCN)C(=O)CN(C(=O)CN(C(=O)CN(CCCCN)C(=O)CN(C(=O)CN(C(=O)CN(CCCCN)C(=O)CN(C(=O)CN(C(=O)CNCCCCN)[C@@H](C)c1ccccc1)[C@@H](C)c1ccccc1)[C@@H](C)c1ccccc1)[C@@H](C)c1ccccc1)[C@@H](C)c1ccccc1)[C@@H](C)c1ccccc1)[C@@H](C)c1ccccc1 [Peptoid 4] (H-[Nlys][Nspe][Nspe][Nlys][Nspe][Nspe][Nlys][Nspe][Nspe][Nlys][Nspe][Nspe]-NH2)
ED50 L. mex prom. [1]: 8 µM | RP-HPLC Retention (% MeCN) ([2]; Supplement table 4 (chemical and physical data for peptoid library), % MeCN at elution in RP-HPLC): 42 % MeCN | HPLC RT ([2]; Table 2 / main text, chromatographic, RP-HPLC C18 retention time as measure of average hydrophobicity, gradient 0-100% solvent B over 30 min, 220 nm, 1 mL/min, A = 0.05% TFA, 95% H2O, 5% MeCN, B = 0.03% TFA, 5% H2O, 95% MeCN, around pH 2.2): 14.9 min | MIC S. aureus (S. aureus): 2 µM (≈ 3.64 µg/mL) | MIC E. coli (E. coli): 25 µM (≈ 45.5 µg/mL)
